Data reported in patent US12168006B2, “Cancer therapy by degrading dual MEK signaling” (The Board of Trustees of the University of Illinois, priority 2017, dated 2024).
Entries after “also recorded” stand apart in the source; their conditions may differ.

What was measured:
Lyn = details: Ba/F3 cells; cited from earlier work
AKT = details: cited from earlier work
H3122 cells = experiment: Long term experiments with EML4-ALK cell line; details: for cytotoxic effect / cell proliferation: 8 days, PAC-1 2 μM, trametinib 5 nM
Procedure: H3122 cells were seeded at 10,000 cells per well in 6 well plates and allowed to adhere overnight. […] Media was refreshed every 3-4 days with new compounds. At the end of the incubation period, cells were fixed 10% trichloroacetic acid, stained with SRB, imaged using GelDoc XR, and absorbance at 510 nm read using SpectraMax M3 (Molecular Devices) plate reader.

caspase-3/-7 = experiment: Caspase-3/-7 activity assay; format: cell-based, human
Procedure: H3122 cells were seeded at 4,000 cells per well and allowed to adhere overnight. […] 10 μM raptinal was used as the positive control throughout the experiment. […] Plates were pre-incubated at 37° C. for 30 minutes in the SpectraMax M3 (Molecular Devices) plate reader and then read for 30 minutes at 3-minute intervals. Slopes for each well were calculated and averaged over six technical replicates. Activity is normalized to the maximal and minimal activity observed within the assay.

MEK2 (MAP2K2) = MEK2 (MAP2K2) (Homo sapiens, UniProt P36507); details: at 1 μM; cited from earlier work
Chain of MEK2 (MAP2K2) (P36507 whole entry, species assumed): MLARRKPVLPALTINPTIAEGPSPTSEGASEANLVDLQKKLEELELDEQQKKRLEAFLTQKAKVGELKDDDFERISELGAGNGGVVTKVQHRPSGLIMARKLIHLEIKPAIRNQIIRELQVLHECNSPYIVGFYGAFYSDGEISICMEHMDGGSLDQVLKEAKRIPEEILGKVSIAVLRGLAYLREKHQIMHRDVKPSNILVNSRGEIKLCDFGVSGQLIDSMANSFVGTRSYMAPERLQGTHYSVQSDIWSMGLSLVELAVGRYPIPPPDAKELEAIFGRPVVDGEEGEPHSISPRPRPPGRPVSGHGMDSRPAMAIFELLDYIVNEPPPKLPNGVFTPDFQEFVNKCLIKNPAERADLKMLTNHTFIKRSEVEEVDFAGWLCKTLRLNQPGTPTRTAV

CaMKII = details: cited from earlier work
CK2 = details: cited from earlier work
PKCδ = PKCδ (Homo sapiens, UniProt Q05655); details: cited from earlier work
Chain of PKCδ (Q05655 whole entry): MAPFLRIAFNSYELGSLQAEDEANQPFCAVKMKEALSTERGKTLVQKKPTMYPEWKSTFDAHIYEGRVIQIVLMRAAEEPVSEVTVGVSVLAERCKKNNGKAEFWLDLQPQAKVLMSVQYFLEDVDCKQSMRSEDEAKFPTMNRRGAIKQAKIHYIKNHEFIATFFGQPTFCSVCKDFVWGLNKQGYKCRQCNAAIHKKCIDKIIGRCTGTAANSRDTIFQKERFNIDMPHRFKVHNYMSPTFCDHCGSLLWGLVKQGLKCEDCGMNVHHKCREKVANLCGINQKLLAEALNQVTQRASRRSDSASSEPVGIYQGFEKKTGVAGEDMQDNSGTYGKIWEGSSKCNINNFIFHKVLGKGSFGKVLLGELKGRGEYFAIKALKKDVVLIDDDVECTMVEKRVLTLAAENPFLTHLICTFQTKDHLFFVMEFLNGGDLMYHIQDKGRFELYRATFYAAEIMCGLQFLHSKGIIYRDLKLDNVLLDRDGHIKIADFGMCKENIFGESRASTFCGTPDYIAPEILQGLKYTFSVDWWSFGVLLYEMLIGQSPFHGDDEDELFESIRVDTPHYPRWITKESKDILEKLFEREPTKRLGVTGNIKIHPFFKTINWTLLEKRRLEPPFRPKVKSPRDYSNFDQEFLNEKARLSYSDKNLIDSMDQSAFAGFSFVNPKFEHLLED

Fyn = Fyn (Homo sapiens, UniProt P06241); details: at 1 μM; cited from earlier work
Chain of Fyn (P06241 whole entry, species assumed): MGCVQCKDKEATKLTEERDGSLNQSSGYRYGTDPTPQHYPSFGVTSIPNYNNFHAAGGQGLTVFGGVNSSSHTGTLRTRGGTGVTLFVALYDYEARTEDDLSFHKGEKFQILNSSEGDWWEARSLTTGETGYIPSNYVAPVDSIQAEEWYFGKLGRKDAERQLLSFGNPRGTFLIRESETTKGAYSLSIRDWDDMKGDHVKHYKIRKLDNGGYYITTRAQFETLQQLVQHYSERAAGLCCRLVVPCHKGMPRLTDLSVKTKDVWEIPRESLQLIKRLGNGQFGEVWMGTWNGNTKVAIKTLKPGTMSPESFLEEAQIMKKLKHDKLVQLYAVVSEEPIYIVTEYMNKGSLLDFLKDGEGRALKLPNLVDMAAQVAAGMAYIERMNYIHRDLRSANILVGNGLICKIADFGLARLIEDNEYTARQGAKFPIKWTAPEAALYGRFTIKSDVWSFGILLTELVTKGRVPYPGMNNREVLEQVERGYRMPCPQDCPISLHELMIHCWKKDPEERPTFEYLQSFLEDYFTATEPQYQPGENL

ERK1/2 (MAPK1) = ERK1/2 (MAPK1) (Homo sapiens, UniProt P28482); details: cited from earlier work
Chain of ERK1/2 (MAPK1) (P28482 2-360 limits assumed): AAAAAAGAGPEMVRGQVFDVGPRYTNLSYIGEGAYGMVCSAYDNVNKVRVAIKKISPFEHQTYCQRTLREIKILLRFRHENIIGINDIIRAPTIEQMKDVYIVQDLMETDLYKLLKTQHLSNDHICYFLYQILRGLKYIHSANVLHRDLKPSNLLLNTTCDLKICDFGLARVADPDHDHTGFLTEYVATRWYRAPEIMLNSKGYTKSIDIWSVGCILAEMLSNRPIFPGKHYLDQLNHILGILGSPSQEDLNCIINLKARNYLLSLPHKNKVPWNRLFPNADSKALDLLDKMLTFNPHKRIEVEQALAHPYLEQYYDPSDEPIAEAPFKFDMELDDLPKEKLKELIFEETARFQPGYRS

CDK1 = CDK1 (Homo sapiens, UniProt P06493); details: at 1 μM; cited from earlier work
Chain of CDK1 (P06493 whole entry, species assumed): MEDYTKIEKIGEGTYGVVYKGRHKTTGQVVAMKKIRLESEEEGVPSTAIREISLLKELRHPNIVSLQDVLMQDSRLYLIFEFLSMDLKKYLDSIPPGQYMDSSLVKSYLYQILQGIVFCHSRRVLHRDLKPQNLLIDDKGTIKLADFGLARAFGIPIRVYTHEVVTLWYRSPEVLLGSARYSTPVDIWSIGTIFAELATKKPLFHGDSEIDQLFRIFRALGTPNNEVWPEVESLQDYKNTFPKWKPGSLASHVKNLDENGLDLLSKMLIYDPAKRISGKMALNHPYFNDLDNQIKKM
Chain of CDK1 (P14635 whole entry partner, species assumed): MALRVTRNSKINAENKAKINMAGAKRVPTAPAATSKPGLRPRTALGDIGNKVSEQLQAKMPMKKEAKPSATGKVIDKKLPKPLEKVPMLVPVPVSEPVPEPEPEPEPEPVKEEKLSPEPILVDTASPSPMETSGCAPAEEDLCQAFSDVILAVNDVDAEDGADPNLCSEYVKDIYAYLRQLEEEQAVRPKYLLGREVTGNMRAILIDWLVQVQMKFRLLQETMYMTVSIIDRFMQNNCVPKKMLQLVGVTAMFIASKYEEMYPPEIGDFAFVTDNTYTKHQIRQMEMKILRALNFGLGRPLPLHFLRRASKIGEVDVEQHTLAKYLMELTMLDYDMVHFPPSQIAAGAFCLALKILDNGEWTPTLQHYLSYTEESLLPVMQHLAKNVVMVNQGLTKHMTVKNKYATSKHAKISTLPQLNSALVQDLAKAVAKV

DYRK1A = DYRK1A (Homo sapiens, UniProt Q13627); details: at 1 μM; cited from earlier work
PKCζ = PKCζ (Homo sapiens, UniProt Q05513); details: cited from earlier work
Chain of PKCζ (Q05513 whole entry): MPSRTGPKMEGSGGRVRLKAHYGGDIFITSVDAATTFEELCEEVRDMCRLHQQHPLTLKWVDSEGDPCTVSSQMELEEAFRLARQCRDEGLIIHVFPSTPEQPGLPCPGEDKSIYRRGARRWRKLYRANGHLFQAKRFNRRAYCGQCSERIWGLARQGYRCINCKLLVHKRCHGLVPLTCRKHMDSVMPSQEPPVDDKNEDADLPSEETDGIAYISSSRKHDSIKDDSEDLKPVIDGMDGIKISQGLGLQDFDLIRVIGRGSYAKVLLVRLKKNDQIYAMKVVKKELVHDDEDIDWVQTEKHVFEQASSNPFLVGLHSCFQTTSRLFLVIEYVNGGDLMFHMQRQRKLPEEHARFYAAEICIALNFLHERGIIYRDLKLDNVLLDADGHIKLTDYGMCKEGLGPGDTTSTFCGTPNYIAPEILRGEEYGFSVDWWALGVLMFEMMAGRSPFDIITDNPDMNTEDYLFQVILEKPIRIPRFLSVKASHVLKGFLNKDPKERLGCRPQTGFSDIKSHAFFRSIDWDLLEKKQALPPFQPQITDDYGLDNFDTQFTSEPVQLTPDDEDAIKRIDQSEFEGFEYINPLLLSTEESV

PKA = details: cited from earlier work
H1975 cells = experiment: Long term experiments with EGFR^T790M cell lines
Procedure: (§1) In 12 well plates, PC-9 GR or H1975 cells were seeded at 2,000 cells per well and allowed to adhere overnight.

PC-9 GR cells = experiment: Long term experiments with EGFR^T790M cell lines
Procedure: as §1

[1] = system: BRAF^V600E melanoma, EGFR^T790M, and EML4-ALK NSCLCs; experiment: Delay of acquired resistance, summary of long term experiments; format: cell-based, human; details: added to the kinase inhibitor
Procedure: (§2) This assay was performed as described previously. Briefly, 100-250 cells were seeded and allowed to adhere overnight. […] Media was refreshed with new compounds added every 3-4 days.

MEK1 and MEK2 kinases = experiment: Immunoblotting of procaspase-3, MEK1 and MEK2 levels; format: cell-based, human; details: Q-VD-OPh 25 μM added concurrently; 48 hours; A375, PC-9 GR, H3122
Procedure: Cells were lysed using RIPA buffer containing phosphatase (BioVision) and protease inhibitor cocktail (Calbiochem). Protein concentration was determined using the BCA assay (Pierce). Cell lysates containing 8-20 μg of protein were loaded into each lane of 4-20% gradient gels (BioRad) and ran for SDS-PAGE. Proteins were transferred onto PDVF membrane (Millipore) for Western blot analysis. Blots were blocked with BSA for one hour followed by incubation with primary antibody overnight (manufacturer's recommended dilutions). Secondary antibody was incubated for one hour. Blots were then imaged with a ChemiDoc Touch after incubation with SuperSignal West Pico Solution following manufacturer's protocols.

[2] = system: A375, PC-9 GR, H3122, K-562 cells; experiment: Q-VD-OPh protection by flow cytometry; format: cell-based, human; details: Q-VD-OPh 25 μM added concurrently; 48 hours
Procedure: A375 (BRAF^V600E) cells were seeded with 70,000 cells/well in 12-well plates and allowed to adhere overnight. The next day, indicated concentrations of PAC-1, vemurafenib, trametinib, and/or Q-VD-OPh were added and cells were incubated at 37° C. for 48 hours. […] The next day, they were incubated with PAC-1, ceritinib, and/or Q-VD-OPh for 48 hours. K-562 cells were seeded with 35,000 cells/well in 12-well plates.

A375 cells = experiment: Long term experiments in BRAF^V600E cell lines; format: cell-based, human; details: continuous treatment
Procedure: as §2

PC-9 GR and H1975 cells = experiment: Cell viability assay (SRB); format: cell-based, human; details: 5-day incubation
Procedure: Final concentration of DMSO in each well is 0.5%. At the end of 5 days, viability was assessed by the sulforhodamine B (SRB) assay sulforhodamine B (SRB) assay. Briefly, 100 μL of 10% trichloroacetic acid (TCA) was added in each well and the plate was incubated for at least 1 hour at 4° C. After the 4° C. incubation, the plate was washed with water and allowed to dry for at least 1 hour at room temperature. 100 μL of SRB dye (1% w/v) was added to each well and incubated for 30 minutes at room temperature. At the end of the 30 minutes incubation, the plate was washed with 1% acetic acid solution and allowed to dry at room temperature. Finally, 200 μL of Tris solution (pH>10) was added to each well to dissolve the SRB dye. The absorbance of each well was read with a SpectraMax M3 plate reader (Molecular Devices) at 510 nm.

[3] = H1975 NSCLC cells, PAC-1 5 μM, up to 48 h
[4] = PC-9 GR NSCLC cells, PAC-1 5 μM, up to 48 h

SMILES: Cc1cc(Nc2ncc(Cl)c(Nc3ccccc3S(=O)(=O)C(C)C)n2)c(OC(C)C)cc1C1CCNCC1 [Ceritinib]
- IC50 (Lyn): 2310 nM
- IC50 (AKT): > 10000 nM
- cytotoxic effect / cell proliferation (H3122 cells): effective in inhibiting cell proliferation
- resistant clones (H3122 cells; 20 days of treatment): Resistant clones were visible
- resistant clones (H3122 cells; 32 days of treatment): dramatic increase

SMILES: Cc1ccc(NC(=O)c2ccc(CN3CCN(C)CC3)cc2)cc1Nc1nccc(-c2cccnc2)n1 [Imatinib]
- caspase-3 activity (caspase-3/-7; K-562 cells, PAC-1 7.5 μM): negligible single-agent activity
- % Inhibition of MEK2 (MAP2K2) (MEK2 (MAP2K2)): 5.9% at 1 μM
- Inhibition of CaMKII (in words) (CaMKII): Not observed
- Inhibition of CK2 (in words) (CK2): Not observed
- Inhibition of PKCδ (in words) (PKCδ): Not observed
- % Inhibition of Fyn (Fyn): 29.6% at 1 μM
- Inhibition of ERK1/2 (MAPK1) (in words) (ERK1/2 (MAPK1)): Not observed
- % Inhibition of CDK1 (CDK1): 1.8% at 1 μM
- % Inhibition of DYRK1A (DYRK1A): 2.2% at 1 μM
- Inhibition of PKCζ (in words) (PKCζ): Not observed
- Inhibition of PKA (in words) (PKA): Not observed

SMILES: C=CC(=O)Nc1cc(Nc2nccc(-c3cn(C)c4ccccc34)n2)c(OC)cc1N(C)CCN(C)C [Osimertinib]
- caspase-3 activity (caspase-3/-7; [3]): Negligible increases
- caspase-3 activity (caspase-3/-7; [4]): Negligible increases
- cytotoxic effect / cell proliferation (H1975 cells): very effective
- resistant clones (H1975 cells): clearly visible
- resistant clones (PC-9 GR cells): clearly visible; also recorded: resistant clones were visible; also recorded: dramatic increase
- cytotoxic effect / cell proliferation (PC-9 GR cells; 8 days, PAC-1 2 μM, osimertinib 30 nM, trametinib 5 nM): very effective; also recorded: effective in inhibiting cell proliferation

SMILES: C=CCc1cccc(/C=N/NC(=O)CN2CCN(Cc3ccccc3)CC2)c1O [PAC-1]
- caspase-3 activity (caspase-3/-7; [3]): Negligible increases
- caspase-3 activity (caspase-3/-7; K-562 cells, PAC-1 7.5 μM): negligible single-agent activity
- caspase-3 activity (caspase-3/-7; [4]): Negligible increases
- concentration effective in delaying acquired resistance to vemurafenib, osimertinib, and ceritinib [1]: 1 to 2 µM

SMILES: CC(C)[C@H](NC(=O)c1ccc2ccccc2n1)C(=O)N[C@@H](CC(=O)O)C(=O)COc1c(F)cccc1F [Q-VD-OPh]
- MEK1/2 cleavage in cells treated with PAC-1/drug combinations (MEK1 and MEK2 kinases): attenuated
- apoptotic cell death in cells treated with PAC-1/drug combinations [2]: protection

SMILES: CCCS(=O)(=O)Nc1ccc(F)c(C(=O)c2c[nH]c3ncc(-c4ccc(Cl)cc4)cc23)c1F [Vemurafenib]
- time at which resistant colonies were first seen (A375 cells): 20 days

SMILES: COc1cc2ncnc(Nc3ccc(F)c(Cl)c3)c2cc1OCCCN1CCOCC1 [gefitinib]
- activity in PC-9 GR and H1975 cells (FIG. 7A) (PC-9 GR and H1975 cells): inactive

SMILES: CC(=O)Nc1cccc(-n2c(=O)n(C3CC3)c(=O)c3c(Nc4ccc(I)cc4F)n(C)c(=O)c(C)c32)c1 [trametinib]
- cytotoxic effect / cell proliferation (H3122 cells): minimal cytotoxic effect
